Assays:
[1] = Binding affinity to SARS-CoV-2 Omicron main protease P132H mutant expressed in Escherichia coli assessed as dissociation constant using fluorogenic substrate incubated for 90 mins by fluorescence based analysis; parameters: species or system Severe acute respiratory syndrome coronavirus 2
[2] = Binding affinity to SARS-CoV-2 main protease E166 V mutant expressed in Escherichia coli assessed as dissociation constant using fluorogenic substrate incubated for 90 mins by fluorescence based analysis; parameters: species or system Severe acute respiratory syndrome coronavirus 2

SMILES | Ki [1] [µM] | Ki [2] [µM]
CC(C)(C)[C@H](NC(=O)C(F)(F)F)C(=O)N1C[C@H]2[C@@H]([C@H]1C(=O)N[C@H](C#N)C[C@@H]1CCNC1=O)C2(C)C | 0.001 | > 5
CN1C(=O)C[C@H]2CC3(CC3)CN2C(=O)c2cncc(c2)NCCCCCCNC(=O)[C@H]1Cc1ccc(Cl)cc1Cl | < 0.001 | 0.012
CN1C(=O)C[C@H]2CC3(CC3)CN2C(=O)c2cncc(c2)NCCC/C=C/CNC(=O)[C@H]1Cc1ccc(Cl)cc1Cl | < 0.001 | 0.011
CNC[C@@H](Cc1ccc(Cl)cc1)N(C)C(=O)C[C@H]1CCCN1C(=O)c1cncc2ccccc12 | 0.035 | 1.2

— ChEMBL document CHEMBL6092207 (J Med Chem, 2024)
